Counter-ions that a name gives are not always drawn.
What was measured:
[1] = test system: human acute myeloid leukemia cell line (HEL92.1.7) having a JAK2 V617F mutation; test: Cell growth inhibitory activity against human acute myeloid leukemia cell line (WST-1 assay); format: cell-based; settings: at a concentration of 10 µmol/L against HEL92.1.7, 72 hours culture
Description: Test Example 2: Cell growth inhibitory activity against human acute myeloid leukemia cell line
The cell growth inhibitory activity of test compound against a human acute myeloid leukemia cell line (HEL92.1.7) (ATCC No. TIB-180) having a JAK2 V617F mutation was measured according to the following process.
A Roswell Park Memorial Institute's Medium (RPMI) 1640 medium (GIBCO, catalog No. 11875-093) containing 10% fetal bovine serum (GIBCO, catalog No. 10437-028) was used to culture each cells. HEL92.1.7 cells controlled at 2. 5 × 10^4 cells/mL were inoculated into a TC MICROWELL 96U plate (Nalge Nunc, catalog No. 163320) at 80 µL per well, and were cultured at 37°C for 4 hours in a 5% carbon dioxide gas incubator. Then, 20 µL per well of DMSO solutions of test compounds adjusted to a final concentration of 10 µmol/L were added to the HEL92.1.7 cells, and the resulting mixtures were cultured again at 37°C for 72 hours in a 5% carbon dioxide gas incubator. Finally, 25 µL of WST-1 reagent {4-[3-(4-indophenyl)-2-(4-nitrophenyl)-2H-5-tetrazolio]-1,3-benz ene disulfonate sodium salt} (Roche Diagnostics K.K., catalog No. 1644807) diluted to 40% with the medium described above was added, and incubation was conducted at 37°C for 2 hours, followed by measuring absorbance at 450 nm (reference wavelength: 690 nm) with a microplate spectrophotometer SPECTRA max 340PC (Molecular Devices). As for the cell growth inhibition ratio, the relative activity (%) of the well containing a test compound was calculated by assuming the activity of the well in which […] a medium to which only DMSO was added as 0%, and then the difference between 100 and the obtained value was assumed as the growth inhibition ratio (%) of the test compound. The higher the value, the stronger the growth inhibition activity against the cells.

human JAK2 = target: T1, human JAK2 (Homo sapiens, UniProt O60674); test: JAK2 enzyme inhibitory activity (time-resolved fluorescence kinase assay with biotinylated Lyn-substrate peptide); format: biochemical; settings: at a concentration of 1 µmol/L; His-tagged JAK2 (826-1132 amino acids), 10 µmol/L ATP, 30°C, 60 minutes
T1 construct: a functional domain (826-1132 amino acids) of human JAK2
T1 sequence (O60674 826-1132): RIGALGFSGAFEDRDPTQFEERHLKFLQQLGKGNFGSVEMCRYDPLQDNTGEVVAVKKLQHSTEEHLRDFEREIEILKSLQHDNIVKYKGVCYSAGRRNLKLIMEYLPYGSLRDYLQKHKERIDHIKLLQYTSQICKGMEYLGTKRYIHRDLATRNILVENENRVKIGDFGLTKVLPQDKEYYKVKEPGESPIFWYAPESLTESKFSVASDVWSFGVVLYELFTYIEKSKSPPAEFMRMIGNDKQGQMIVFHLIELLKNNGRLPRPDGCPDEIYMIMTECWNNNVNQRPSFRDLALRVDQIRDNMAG
Description: In order to measure the JAK2 enzyme inhibitory activity, the following process was employed. […] The relative activity (%) of the well containing the test compound was calculated by assuming the activity of the well of the enzyme to which 0.1% DMSO was added as 100% and the activity of the well to which no enzyme was added as 0%, and the difference between 100 and the obtained value was assumed to be the JAK2 inhibition ratio (%) of the test compound.

| SMILES | JAK2 inhibition ratio (human JAK2) | cell growth inhibition ratio [1] |
| --- | --- | --- |
| CC(C)Oc1cc2c(c(-c3cc4cc(CN5CCCCC5)ccc4[nH]3)c1)C(=O)NC2 [Compound 484, 5-(2-Propyloxy)-7-[1H-5-(piperidinomethyl)indol-2-yl]isoindolinone hydrochloride] | ≥ 50% | ≥ 50% |
| CCN(CC)Cc1ccc2[nH]c(-c3cc(C(O)C(C)C)cc4c3C(=O)NC4)cc2c1 (centres unmarked) [Compound 555, 5-(1-Hydroxy-2-methylpropyl)-7-[1H-5-(diethylaminomethyl)indol-2-yl]isoindolinone hydrochloride] | ≥ 50% | ≥ 50% |
| CN(C)Cc1cc(-c2cc3cc(CN4CCCCC4)ccc3[nH]2)c2c(c1O)CNC2=O [Compound 562, 4-Hydroxy-5-(dimethylaminomethyl)-7-[1H-5-(piperidinomethyl)indol-2-yl]isoindolinone dihydrochloride] | ≥ 50% | ≥ 50% |
| CC(C)Oc1cc2c(c(-c3ccc[nH]3)c1)C(=O)NC2 [Compound 571, 5-(2-Propyloxy)-7-(1H-pyrrol-2-yl)isoindolinone] | ≥ 50% | ≥ 50% |

More lines, main results first:

| JAK2 inhibition ratio (human JAK2) | SMILES | cell growth inhibition ratio [1] |
| --- | --- | --- |
| ≥ 50% | O=C1NCc2c(-c3ccc(O)cc3)ccc(-c3cc4cc(CN5CCCCC5)ccc4[nH]3)c21 [Compound 305, 4-(4-Hydroxyphenyl)-7-[1H-5-(piperidinomethyl)indol-2-yl]isoindo linone hydrochloride] | ≥ 50% |
| ≥ 50% | O=C1NCc2c(C#CCCO)ccc(-c3cc4cc(CN5CCCCC5)ccc4[nH]3)c21 [Compound 320, 4-(4-Hydroxy-1-butynyl)-7-[1H-5-(piperidinomethyl)indol-2-yl]iso indolinone hydrochloride] | ≥ 50% |
| ≥ 50% | CN(C)Cc1cc2c(c(-c3cc4cc(CN5CCN(CCO)CC5)ccc4[nH]3)c1)C(=O)NC2 [Compound 483, 5-(Dimethylaminomethyl)-7-{1H-5-[4-(2-hydroxyethyl)piperazin-1-ylmethyl]indol-2-yl}isoindolinone trihydrochloride] | ≥ 50% |
| ≥ 50% | CCN(CC)Cc1ccc2[nH]c(-c3cc(CN(C)C)cc4c3C(=O)NC4)cc2c1 [Compound 504, 5-(Dimethylaminomethyl)-7-[1H-5-(diethylaminomethyl)indol-2-yl)i soindolinone] | ≥ 50% |
| ≥ 50% | CC(C)Nc1cc2c(c(-c3cc4cc(CN5CCCCC5)ccc4[nH]3)c1)C(=O)NC2 [Compound 509, 5-(2-Propylamino)-7-[1H-5-(piperidinomethyl)indol-2-yl)isoindoli none dihydrochloride] | ≥ 50% |
| ≥ 50% | Cc1cc(O)ccc1-c1cc2c(c(-c3cc4cc(CN5CCCCC5)ccc4[nH]3)c1)C(=O)NC2 [Compound 550, 5-(4-Hydroxy-2-methylphenyl)-7-[1H-5-(piperidinomethyl)indol-2-yl]isoindolinone] | ≥ 50% |
